Where two headings read alike, the source gives them in different places.
Tests used:
BCL-XL = target: T1, BCL-XL (Homo sapiens, UniProt Q07817); test: BCL-XL TR-FRET Assay (primary PPI inhibition); assay type: binding; conditions: 60 min incubation; read-out: BCLxL (IC50 code, BCL-XL TR-FRET)
T1 construct: purchased BPS Bioscience #50223
Outline: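 10.5 ng His-tagged BCL-XL incubated 60 min with test compound, BCL-XL peptide ligand (1:80), Tb-labelled anti-His donor and dye-labelled acceptor (each 1:100). Displacement read as TR-FRET, excitation 340 nm, emission 620 and 665 nm, 60 μs delay, 500 μs integration.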

BCL-2 = target: T2, BCL-2 (Homo sapiens, UniProt P10415); test: BCL-2 TR-FRET Assay (primary PPI inhibition); assay type: binding; conditions: 60 min incubation; read-out: BCL2 (IC50 code, BCL-2 TR-FRET)
T2 construct: purchased BPS Bioscience #50222

[1] = test system: caspase-3 and -7 activities in RS4-11 cells; test: Cas-3/7 activation (Caspase-Glo 3/7) in RS4-11 cells; assay type: cell-based; conditions: Homo sapiens, 3.5 h at 37° C. and 30 min at r.t., read-out: Cas-3/7 (EC50 code)
Procedure: Assay Principle: The Caspase-Glo 3/7 Assay is homogeneous, luminescent assay that measures caspase-3 and -7 activities. The assay provides a luminogenic caspase-3/7 substrate, which contains the tetrapeptide sequence DEVD, in a reagent optimized for caspase activity.
Assay Procedure: Incubate RS4-11 cells with varying concentrations of test compounds for 3.5 h in a humidified incubator at 37° C. and 5% CO2 and 30 min at r.t. Add 15 μl Caspase-Glo reagent to each well and incubate the plate for 30 min at r.t. Read on ClarioStar Plus instrument.
Materials: Promega Caspase-Glo (Promega, #8212); Frozen RS4-11 cells; 384-well white plate (Corning, #3570).
Instrumentation: ClarioStar Plus; Biomek FX for liquid handling (Beckman Coulter).

MOLT-4 cells = test: Cell viability assay MOLT-4 (CellTiter-Glo); assay type: cell-based; conditions: Homo sapiens, read-out: MOLT-4 (CC50 code)
Outline: (§1)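 Cells were seeded at 2000/well (HEK293, in DMEM, pre-incubated a day) or 4000/well (other lines, in RPMI-1640). Serially diluted compound was added and plates incubated 3 days at 37 °C, with viability read by CellTiter-Glo luminescence.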

[2] = Cell viability assay HEK293 (CellTiter-Glo); assay type: cell-based; conditions: human, HEK293 cells, read-out: HEK293 (CC50 code)
Outline: as §1

RS4-11 cells = test: Cell viability assay RS4-11 (CellTiter-Glo); assay type: cell-based; conditions: Homo sapiens, read-out: RS4-11 (CC50 code)
Outline: as §1

[3] = 72 h, MOLT-4 cells, 3 days, CellTiter-Glo
[4] = 72 h, RS4-11 cells, 3 days, CellTiter-Glo

T2 sequence (P10415 whole entry): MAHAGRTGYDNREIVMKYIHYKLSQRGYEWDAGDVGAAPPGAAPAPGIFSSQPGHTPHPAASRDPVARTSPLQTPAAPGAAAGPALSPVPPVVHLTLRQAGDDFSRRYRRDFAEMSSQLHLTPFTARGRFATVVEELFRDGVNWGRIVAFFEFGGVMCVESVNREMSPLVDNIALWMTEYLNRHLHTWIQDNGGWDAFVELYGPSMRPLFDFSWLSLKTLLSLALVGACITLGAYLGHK
T1 sequence (Q07817 whole entry): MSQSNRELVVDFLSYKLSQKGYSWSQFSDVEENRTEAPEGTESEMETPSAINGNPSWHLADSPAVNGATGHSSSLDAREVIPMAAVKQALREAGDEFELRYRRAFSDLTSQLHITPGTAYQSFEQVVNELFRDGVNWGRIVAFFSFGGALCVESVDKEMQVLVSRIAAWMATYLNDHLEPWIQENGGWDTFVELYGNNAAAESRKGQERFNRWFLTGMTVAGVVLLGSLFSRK

Compound	IC50 (BCL-XL)	IC50 (BCL-2)	EC50 [1]	CC50 (MOLT-4 cells; [3])	CC50 at 3 days [2]	CC50 (RS4-11 cells; [4])	CC50 (MOLT-4 cells; MOLT-4, 72 h)	CC50 (RS4-11 cells; RS4-11, 72 h)
O=C(NS(=O)(=O)c1ccc(NCC2CCOCC2)c([N+](=O)[O-])c1)c1ccc(N2CCN(CC(O)(c3ccccc3)c3ccccc3)CC2)cc1Oc1cnc2[nH]ccc2c1 [Compound 7, 4-[4-(2-hydroxy-2,2-diphenyl-ethyl)piperazin-1-yl]-N-[3-nitro-4-(tetrahydropyran-4-ylmethylamino)phenyl]sulfonyl-2-(1H-pyrrolo[2,3-b]pyridin-5-yloxy)benzamide]	> 4 µM	0.01 to 0.05 µM	> 0.25 µM	2 to 10 µM	> 25 µM	> 0.2 µM	–	–
CC1=C(C)C[C@H](c2ccc(Cl)cc2)[C@@H](CN2CCN(c3ccc(C(=O)NS(=O)(=O)c4ccc(NCC5CCOCC5)c([N+](=O)[O-])c4)c(Oc4cnc5[nH]ccc5c4)c3)CC2)C1 [Compound 75, 4-[4-[[(1S,6S)-6-(4-chlorophenyl)-3,4-dimethyl-cyclohex-3-en-1-yl]methyl]piperazin-1-yl]-N-[3-nitro-4-(tetrahydropyran-4-ylmethylamino)phenyl]sulfonyl-2-(1H-pyrrolo[2,3-b]pyridin-5-yloxy)benzamide]	≤ 2 µM	> 0.05 µM	> 0.25 µM	2 to 10 µM	> 25 µM	> 0.2 µM	–	–
CC(C)C(=O)N1Cc2cc(F)ccc2C[C@H]1CN1CCN(c2ccc(C(=O)NS(=O)(=O)c3ccc(NCC4CCOCC4)c([N+](=O)[O-])c3)c(Oc3cnc4[nH]ccc4c3)c2)CC1 [Compound 48, 4-[4-[[(3S)-7-fluoro-2-(2-methylpropanoyl)-3,4-dihydro-1H-isoquinolin-3-yl]methyl]piperazin-1-yl]-N-[3-nitro-4-(tetrahydropyran-4-ylmethylamino)phenyl]sulfonyl-2-(1H-pyrrolo[2,3-b]pyridin-5-yloxy)benzamide]	> 4 µM	> 0.05 µM	> 0.25 µM	> 10 µM	> 25 µM	> 0.2 µM	–	–
O=C(NS(=O)(=O)c1ccc(NCC2CCOCC2)c([N+](=O)[O-])c1)c1ccc(N2CCN(CC(c3ccccc3)c3ccccc3)CC2)cc1Oc1cnc2[nH]ccc2c1 [Compound 4, 4-[4-(2,2-diphenylethyl)piperazin-1-yl]-N-[3-nitro-4-(tetrahydropyran-4-ylmethylamino)phenyl]sulfonyl-2-(1H-pyrrolo[2,3-b]pyridin-5-yloxy)benzamide]	> 4 µM	> 0.05 µM	> 0.25 µM	2 to 10 µM	> 25 µM	> 0.2 µM	–	–
CC1(C)CN(CC2CCN(c3ccc(C(=O)NS(=O)(=O)c4ccc(NCC5CCOCC5)c([N+](=O)[O-])c4)c(Oc4cnc5[nH]ccc5c4)c3)CC2)Cc2ccccc21 [Compound 39, 4-[4-[(4,4-dimethyl-1,3-dihydroisoquinolin-2-yl)methyl]-1-piperidyl]-N-[3-nitro-4-(tetrahydropyran-4-ylmethylamino)phenyl]sulfonyl-2-(1H-pyrrolo[2,3-b]pyridin-5-yloxy)benzamide]	> 4 µM	> 0.05 µM	> 0.25 µM	2 to 10 µM	> 25 µM	> 0.2 µM	–	–
CC(C)C(=O)N1Cc2ccc(Cl)cc2C[C@H]1CN1CCN(c2ccc(C(=O)NS(=O)(=O)c3ccc(NCC4CCOCC4)c([N+](=O)[O-])c3)c(Oc3cnc4[nH]ccc4c3)c2)CC1 [Compound 40, 4-[4-[[(3S)-6-chloro-2-(2-methylpropanoyl)-3,4-dihydro-1H-isoquinolin-3-yl]methyl]piperazin-1-yl]-N-[3-nitro-4-(tetrahydropyran-4-ylmethylamino)phenyl]sulfonyl-2-(1H-pyrrolo[2,3-b]pyridin-5-yloxy)benzamide]	> 4 µM	> 0.05 µM	> 0.25 µM	2 to 10 µM	10 to 25 µM	> 0.2 µM	–	–
O=C(NS(=O)(=O)c1ccc(NCC2CCOCC2)c([N+](=O)[O-])c1)c1ccc(N2CCN(C[C@@H]3Cc4cc(F)ccc4CN3C(=O)C3CC3)CC2)cc1Oc1cnc2[nH]ccc2c1 [Compound 49, 4-[4-[[(3S)-2-(cyclopropanecarbonyl)-6-fluoro-3,4-dihydro-1H-isoquinolin-3-yl]methyl]piperazin-1-yl]-N-[3-nitro-4-(tetrahydropyran-4-ylmethylamino)phenyl]sulfonyl-2-(1H-pyrrolo[2,3-b]pyridin-5-yloxy)benzamide]	> 4 µM	0.01 to 0.05 µM	> 0.25 µM	2 to 10 µM	> 25 µM	> 0.2 µM	–	–
O=C(NS(=O)(=O)c1ccc(NCC2CCOCC2)c([N+](=O)[O-])c1)c1ccc(N2CCC(CN3C(=O)C4(CCCC4)C3c3cncc(Cl)c3)CC2)cc1Oc1cnc2[nH]ccc2c1 (stereo not drawn) [Compound 9, 4-[4-[[1-(5-chloro-3-pyridyl)-3-oxo-2-azaspiro[3.4]octan-2-yl]methyl]-1-piperidyl]-N-[3-nitro-4-(tetrahydropyran-4-ylmethylamino)phenyl]sulfonyl-2-(1H-pyrrolo[2,3-b]pyridin-5-yloxy)benzamide]	2 to 4 µM	> 0.05 µM	> 0.25 µM	–	> 25 µM	–	2 to 10 µM	> 0.2 µM
O=C(NS(=O)(=O)c1ccc(NCC2CCOCC2)c([N+](=O)[O-])c1)c1ccc(N2CCN(CC(O)(c3ccccc3)c3ccc(Cl)cc3)CC2)cc1Oc1cnc2[nH]ccc2c1 (stereo not drawn) [Compound 43, 4-[4-[2-(4-chlorophenyl)-2-hydroxy-2-phenyl-ethyl]piperazin-1-yl]-N-[3-nitro-4-(tetrahydropyran-4-ylmethylamino)phenyl]sulfonyl-2-(1H-pyrrolo[2,3-b]pyridin-5-yloxy)benzamide]	> 4 µM	> 0.05 µM	> 0.25 µM	2 to 10 µM	> 25 µM	> 0.2 µM	–	–
O=C(NS(=O)(=O)c1ccc(NCC2CCOCC2)c([N+](=O)[O-])c1)c1ccc(N2CCC(Cn3c(-c4ccc(Cl)cc4)nc4cccnc43)CC2)cc1Oc1cnc2[nH]ccc2c1 [Compound 51, 4-[4-[[2-(4-chlorophenyl)imidazo[4,5-b]pyridin-3-yl]methyl]-1-piperidyl]-N-[3-nitro-4-(tetrahydropyran-4-ylmethylamino)phenyl]sulfonyl-2-(1H-pyrrolo[2,3-b]pyridin-5-yloxy)benzamide]	> 4 µM	0.01 to 0.05 µM	> 0.25 µM	2 to 10 µM	> 25 µM	> 0.2 µM	–	–
CC(C)C(=O)N1Cc2ccccc2C[C@H]1CN1CCN(c2ccc(C(=O)NS(=O)(=O)c3ccc(NCC4CCOCC4)c([N+](=O)[O-])c3)c(Oc3cnc4[nH]ccc4c3)c2)CC1 [Compound 8, 4-[4-[[2-(2-methylpropanoyl)-3,4-dihydro-1H-isoquinolin-3-yl]methyl]piperazin-1-yl]-N-[3-nitro-4-(tetrahydropyran-4-ylmethylamino)phenyl]sulfonyl-2-(1H-pyrrolo[2,3-b]pyridin-5-yloxy)benzamide]	≤ 2 µM	> 0.05 µM	> 0.25 µM	2 to 10 µM	> 25 µM	> 0.2 µM	–	–
O=C(NS(=O)(=O)c1ccc(NCC2CCOCC2)c([N+](=O)[O-])c1)c1ccc(N2CCN(CC3Cc4cc(Cl)ccc4CN3C(=O)C3CC3)CC2)cc1Oc1cnc2[nH]ccc2c1 (stereo not drawn) [Compound 22, 4-[4-[[6-chloro-2-(cyclopropanecarbonyl)-3,4-dihydro-1H-isoquinolin-3-yl]methyl]piperazin-1-yl]-N-[3-nitro-4-(tetrahydropyran-4-ylmethylamino)phenyl]sulfonyl-2-(1H-pyrrolo[2,3-b]pyridin-5-yloxy)benzamide]	> 4 µM	> 0.05 µM	> 0.25 µM	2 to 10 µM	> 25 µM	> 0.2 µM	–	–
CC(C)C(=O)N1Cc2ccc(F)cc2C[C@H]1CN1CCN(c2ccc(C(=O)NS(=O)(=O)c3ccc(NCC4CCOCC4)c([N+](=O)[O-])c3)c(Oc3cnc4[nH]ccc4c3)c2)CC1 [Compound 45, 4-[4-[[(3S)-6-fluoro-2-(2-methylpropanoyl)-3,4-dihydro-1H-isoquinolin-3-yl]methyl]piperazin-1-yl]-N-[3-nitro-4-(tetrahydropyran-4-ylmethylamino)phenyl]sulfonyl-2-(1H-pyrrolo[2,3-b]pyridin-5-yloxy)benzamide]	> 4 µM	> 0.05 µM	> 0.25 µM	> 10 µM	> 25 µM	> 0.2 µM	–	–
